Experimental data published in patent publication US5098933A, “Pharmaceutically useful Michael addition products of unsaturated aldehydes and ketones and ascorbic acid” (Theracel Corporation, priority 1990, dated 1992).
Read-outs that look alike come from different tables or passages of the source.

Columns and labels:
[1] = system: plaque forming cells, antibody specific to sheep red blood cells; test: Jerne Hemolytic Plaque Assay; assay type: in vivo, mice
Protocol: This assay measures the IgM or IgG isotypes of specific antibody produced by antigen used to immunize the mice. […] The direct assay detects IgM and the indirect assay detects IgG-specific antibody.
Washed spleen cells are added to an agarose (FMC, Rockland, Me.) preparation containing sheep red blood cells (SRBC) and guinea pig complement. A drop of this mixture is transferred to a small petri dish; a cover slip is then placed over the drop to flatten it. The agarose prep is allowed to solidify. Then, the dishes are placed in a small humidified changer inside a CO-2 incubator overnight.
Small pinpoint cleared areas (plaques) will be observed under the cover slip. The cleared areas are caused by antibody, specific to the SRBC's being released by stimulated spleen cells and in conjunction with the complement, lyse surrounding SRBC's. These plaque forming cells (PFC's) are counted, and calculations are performed to obtain PFC's per […] spleen cells.
1. Spleens are harvested from mice according to a standard procedure and adjusted to a final concentration of 20% in […].
14. Count and record the number of hemolytic plaques per plate. Average plaque counts between the duplicate sets. Multiply the average number of plaques per group by 2.5 to obtain the number of plaque forming cells per million spleen cells.

[2] = system: T- and B- lymphocyte isolated from mouse spleens; test: Lymphocyte Blastogenesis Assay; assay type: in vivo; settings: for RPMI: no mitogen (Table 8); for activation at 12.5 mg/kg / activation at 25 mg/kg / activation at 50 mg/kg / activation at 100 mg/kg / activation at 200 mg/kg: Mus musculus, Lymphocyte; for RPMI CONTROL: no mitogen (Table 9)
Text: This assay measures the ability of the compound under test to affect DNA synthesis and mitosis of T- and B- lymphocyte isolated from mouse spleens.
Mitogens are substances which stimulate DNA synthesis and mitosis. The mitogens used in these studies were phytohemaglutinin (PHA) which is isolated from the red kidney bean and concanavalin-A (Con-A) which is isolated form the jack bean. Con-A binds to specific receptors (glycoproteins) containing mannosyl or glycosyl moieties and stimulates all murine T-cells to synthesize DNA, divide, and release lymphokines. Con-A in a soluble form allows distinction between T- and B-cells in the mouse, because although both T- and B-cells can bind 106 molecules of Con-A per cell, only T-cells are stimulated when this lectin is presented in a soluble form. PHA stimulates only subpopulations, T-2 cells, of T-cells in the mouse. Also, Con-A stimulates the production of cytokines such as Interleukin-2 (IL-2). In humans, both T- and B-cells are probably stimulated. The activation of B-cells by PHA may be indirect and mediated by the release of soluble mediators from PHA-activated T-cells.
The lymphocyte blastogenesis test is a method to assess the ability of immunocompetent T- or B-cells to respond to a polyclonal mitogen (i.e. PHA or Con-A) or a specific antigen. It may be performed on lymphocytes obtained from mice treated with immunostimulators in vivo or the entire assay can be performed in vitro. The assay as described below uses minimal doses of polyclonal mitogens to induce blastogenesis (proliferation measure by DNA synthesis), in order to be able to assess the phenomena of amplification.
1. Sacrifice two mice/experimental group by cervical dislocation.
14. […]
15. Include in the experiment a control plate which contains the same cells group as above, but receive a 0.1 ml of media instead of mitogen.
18. After 48 hours all wells receive 0.025 mls of a 0.4 microcurie/ml solution of C-14 methyl thymidine and incubate at 37 C, 5% CO-2 for 18 hours.

O=C1CCC(C2(O)C(=O)OC3C(O)COC32O)C1 (single isomer, unassigned) [L-KCPBL-A]
% INCREASE ([1]; 25 mg/kg (Table 12)): 233% | PFC ([1]; 25 mg/kg (Table 12)): 162.5 PFC/1 MILLION CELLS | % INCREASE ([1]; 50 mg/kg (Table 12)): 151% | PFC ([1]; 50 mg/kg (Table 12)): 122.5 PFC/1 MILLION CELLS | % INCREASE ([1]; 100 mg/kg (Table 12)): 120% | PFC ([1]; 100 mg/kg (Table 12)): 107.5 PFC/1 MILLION CELLS | % INCREASE ([1]; 200 mg/kg (Table 12)): 202% | PFC ([1]; 200 mg/kg (Table 12)): 147.5 PFC/1 MILLION CELLS | antibody production / PFC, dose dependence ([1]; vs control): stimulates T-dependent antibody production, but not in a dose response fashion

O=C1CCCC(C2(O)C(=O)OC3C(O)COC32O)C1 (single isomer, unassigned) [KCBL-B]
% INCREASE ([1]; 25 mg/kg (Table 10)): 39% | PFC ([1]; 25 mg/kg (Table 10)): 66.25 PFC/1 MILLION CELLS | % INCREASE ([1]; 50 mg/kg (Table 10)): 218% | PFC ([1]; 50 mg/kg (Table 10)): 151.25 PFC/1 MILLION CELLS | % INCREASE ([1]; 100 mg/kg (Table 10)): 232% | PFC ([1]; 100 mg/kg (Table 10)): 157.5 PFC/1 MILLION CELLS | % INCREASE ([1]; 200 mg/kg (Table 10)): 171% | PFC ([1]; 200 mg/kg (Table 10)): 128.75 PFC/1 MILLION CELLS | CON-A 2.25 ug/ml ([2]; 12.5 mg/kg (Table 8)): 865.6 counts per minute | PHA 14.0 ug/ml ([2]; 12.5 mg/kg (Table 8)): 1733.1 counts per minute | RPMI ([2]; 12.5 mg/kg): 67.6 counts per minute | CON-A 2.25 ug/ml ([2]; 25 mg/kg (Table 8)): 1309.6 counts per minute | PHA 14.0 ug/ml ([2]; 25 mg/kg (Table 8)): 3512.1 counts per minute | RPMI ([2]; 25 mg/kg): 84.3 counts per minute | CON-A 2.25 ug/ml ([2]; 50 mg/kg (Table 8)): 1130.6 counts per minute | PHA 14.0 ug/ml ([2]; 50 mg/kg (Table 8)): 2540.7 counts per minute | RPMI ([2]; 50 mg/kg): 56.2 counts per minute | CON-A 2.25 ug/ml ([2]; 100 mg/kg (Table 8)): 1736.7 counts per minute | PHA 14.0 ug/ml ([2]; 100 mg/kg (Table 8)): 3515.4 counts per minute | RPMI ([2]; 100 mg/kg): 84.9 counts per minute | CON-A 2.25 ug/ml ([2]; 200 mg/kg (Table 8)): 2008.0 counts per minute | PHA 14.0 ug/ml ([2]; 200 mg/kg (Table 8)): 3305.8 counts per minute | RPMI ([2]; 200 mg/kg): 52.0 counts per minute | activation at 12.5 mg/kg ([2]; 12.5 mg/kg (Table 8), read-out: % INCREASE (CON-A 2.25 ug/ml)): 123% | activation at 12.5 mg/kg ([2]; 12.5 mg/kg (Table 8), read-out: % INCREASE (PHA 14.0 ug/ml)): 12.1% | activation at 25 mg/kg ([2]; 25 mg/kg (Table 8), read-out: % INCREASE (CON-A 2.25 ug/ml)): 237% | activation at 25 mg/kg ([2]; 25 mg/kg (Table 8), read-out: % INCREASE (PHA 14.0 ug/ml)): 127% | activation at 50 mg/kg ([2]; 50 mg/kg (Table 8), read-out: % INCREASE (CON-A 2.25 ug/ml)): 191% | activation at 50 mg/kg ([2]; 50 mg/kg (Table 8), read-out: % INCREASE (PHA 14.0 ug/ml)): 64.4% | activation at 100 mg/kg ([2]; 100 mg/kg (Table 8), read-out: % INCREASE (CON-A 2.25 ug/ml)): 347% | activation at 100 mg/kg ([2]; 100 mg/kg (Table 8), read-out: % INCREASE (PHA 14.0 ug/ml)): 128% | activation at 200 mg/kg ([2]; 200 mg/kg (Table 8), read-out: % INCREASE (CON-A 2.25 ug/ml)): 418% | activation at 200 mg/kg ([2]; 200 mg/kg (Table 8), read-out: % INCREASE (PHA 14.0 ug/ml)): 114%

CC(=O)CCC1(O)C(=O)OC2C(O)COC21O (stereo not drawn) [KBBL, 2-(3-Ketobutyl)-2-Hydroxy-3-Keto-4-Dihydroxyethyl Butyrolactone <3, 6> Cyclohemiketal]
% INCREASE ([1]; 50 mg/kg (Table 11)): 70.2% | PFC ([1]; 50 mg/kg (Table 11)): 36.0 PFC/1 MILLION CELLS | % INCREASE ([1]; 100 mg/kg (Table 11)): 104.3% | PFC ([1]; 100 mg/kg (Table 11)): 48.0 PFC/1 MILLION CELLS | % INCREASE ([1]; 200 mg/kg (Table 11)): 106.4% | PFC ([1]; 200 mg/kg (Table 11)): 48.5 PFC/1 MILLION CELLS | CON-A 1.5 ug ([2]; 25 mg/kg (Table 9)): 3572 | CON-A 2.25 ug ([2]; 25 mg/kg (Table 9)): 5398 | PHA 10.5 ug ([2]; 25 mg/kg (Table 9)): 7935 | PHA 14 ug ([2]; 25 mg/kg (Table 9)): 10994 | RPMI CONTROL ([2]; 25 mg/kg): 255 | CON-A 1.5 ug ([2]; 50 mg/kg (Table 9)): 2539 | CON-A 2.25 ug ([2]; 50 mg/kg (Table 9)): 5802 | PHA 10.5 ug ([2]; 50 mg/kg (Table 9)): 4579 | PHA 14 ug ([2]; 50 mg/kg (Table 9)): 7295 | RPMI CONTROL ([2]; 50 mg/kg): 92 | CON-A 1.5 ug ([2]; 100 mg/kg (Table 9)): 1051 | CON-A 2.25 ug ([2]; 100 mg/kg (Table 9)): 3056 | PHA 10.5 ug ([2]; 100 mg/kg (Table 9)): 3540 | PHA 14 ug ([2]; 100 mg/kg (Table 9)): 4878 | RPMI CONTROL ([2]; 100 mg/kg): 33 | CON-A 1.5 ug ([2]; 200 mg/kg (Table 9)): 2571 | CON-A 2.25 ug ([2]; 200 mg/kg (Table 9)): 6891 | PHA 14 ug ([2]; 200 mg/kg (Table 9)): 6963 | RPMI CONTROL ([2]; 200 mg/kg): 55 | activation at 25 mg/kg ([2]; 25 mg/kg (Table 9), read-out: % INCR. (CON-A 1.5 ug)): 663% | activation at 25 mg/kg ([2]; 25 mg/kg (Table 9), read-out: % INCR. (CON-A 2.25 ug)): 260% | activation at 25 mg/kg ([2]; 25 mg/kg (Table 9), read-out: % INCR. (PHA 10.5 ug)): 356% | activation at 25 mg/kg ([2]; 25 mg/kg (Table 9), read-out: % INCR. (PHA 14 ug)): 373% | activation at 50 mg/kg ([2]; 50 mg/kg (Table 9), read-out: % INCR. (CON-A 1.5 ug)): 443% | activation at 50 mg/kg ([2]; 50 mg/kg (Table 9), read-out: % INCR. (CON-A 2.25 ug)): 285% | activation at 50 mg/kg ([2]; 50 mg/kg (Table 9), read-out: % INCR. (PHA 10.5 ug)): 163% | activation at 50 mg/kg ([2]; 50 mg/kg (Table 9), read-out: % INCR. (PHA 14 ug)): 214% | activation at 100 mg/kg ([2]; 100 mg/kg (Table 9), read-out: % INCR. (CON-A 1.5 ug)): 54% | activation at 100 mg/kg ([2]; 100 mg/kg (Table 9), read-out: % INCR. (CON-A 2.25 ug)): 103% | activation at 100 mg/kg ([2]; 100 mg/kg (Table 9), read-out: % INCR. (PHA 10.5 ug)): 103% | activation at 100 mg/kg ([2]; 100 mg/kg (Table 9), read-out: % INCR. (PHA 14 ug)): 110% | activation at 200 mg/kg ([2]; 200 mg/kg (Table 9), read-out: % INCR. (CON-A 1.5 ug)): 449% | activation at 200 mg/kg ([2]; 200 mg/kg (Table 9), read-out: % INCR. (CON-A 2.25 ug)): 357% | activation at 200 mg/kg ([2]; 200 mg/kg (Table 9), read-out: % INCR. (PHA 10.5 ug)): 171% | activation at 200 mg/kg ([2]; 200 mg/kg (Table 9), read-out: % INCR. (PHA 14 ug)): 200% | stimulation at all doses ([2]; all doses of PHA and Con-A, 25-200 mg/kg): stimulatory at all the doses of PHA and Con-A tested
